One test deals with ZAT10. Description: ZAT10 gene expression by real-time PCR, Example 11. Format: in vivo. As to conditions: Arabidopsis thaliana; 0.4 mM, 22° C. for 2 hours; read-out: ZAT10 expression level, increase vs control. The procedure:
(§1) The materials as used in Example 1 were used.
The medium as used in Example 1 was used.
To the Arabidopsis thaliana plants grown for 7 days in the same manner as in Example 1, 0.4 mM N-acetylglutamic acid or an equivalent amount of sterile water was added, and the plants were incubated at 22° C. for 2 hours. After incubation for 2 hours, the samples were frozen with liquid nitrogen, and RNA was extracted using the RNeasy Plant Mini Kit […].
cDNA that would be necessary as a real-time PCR template was synthesized from the RNA obtained. 1000 ng total RNA was used for each sample, and cDNA was synthesized using the Verso cDNA Synthesis Kit (Thermo Fischer Scientific). The synthesized cDNA was diluted to 5-fold with sterile distilled water and subjected to real-time PCR. For real-time PCR, a reaction solution containing ZAT10 (AGI code: AT1G27730) and ZAT12 (AGI code: AT5G59820) as the target genes, PP2AA3 (AGI code: AT1G13320) as the reference gene, and TB Green Ex Taq II (TakaRa) was prepared. PCR was performed with the use of the LightCycler® 480 System (Roche) with the number of amplification cycles of 50. The primers shown below were used.
(§2) Thereafter, the relative expression levels of the target genes upon N-acetylglutamic acid treatment were calculated by the ΔΔCt method using the Cp values obtained by real-time PCR.

Another test deals with HAC12. Description: HAC12 gene expression by real-time PCR, Example 15. Format: in vivo. As to conditions: Arabidopsis thaliana; 0.1 mM in medium, 2 hours after application, 22° C.; read-out: HAC12 expression level, increase vs group not subjected to the treatment. The protocol: (§3) The materials as used in Example 14 were used.
(§4) A liquid medium containing a ½ Murashige and Skoog Plant Salt Mixture (Nacalai) and 1 (w/v) % sucrose (FUJIFILM Wako) was used as a growth medium.
(§5) Arabidopsis thaliana seeds were sterilized with the use of a Kitchen Haiter® liquid (Kao Corporation) diluted to one-half concentration with distilled water for 3 minutes, washed 3 times with sterile distilled water, and then incubated at 4° C. overnight. The growth medium was dispensed at 1 ml/well on a 12-well microplate (IWAKI), 5 grains of the seeds were inoculated in each well, and the plate was transferred to the incubator (TOMY) to initiate growing. The incubator was maintained at a temperature of 22° C. for a daily cycle of 16 hours light and 8 hours darkness.
(§6) N-acetylglutamic acid was applied to Arabidopsis thaliana 7 days after inoculation to the final concentration of 0.1 mM in the medium, followed by incubation for 2 hours or 6 hours. The incubator was maintained at a temperature of 22° C. for a daily cycle of 16 hours light and 8 hours darkness. After incubation, the samples were frozen with liquid nitrogen, and RNA was extracted using the RNeasy Plant Mini Kit […]. […]
as §2
(In general: In qPCR the cycle at which signal appears reflects the starting amount.)

A further test deals with HSP17.6C. Description: HSP17.6C gene expression by real-time PCR, Example 5. Format: in vivo. Conditions: Arabidopsis thaliana; 0.1 mM in medium, 6 hours after application, 22° C.; read-out: HSP17.6C expression level, increase vs control group. The protocol: as §1
The method as employed in Example 1 was employed.
N-acetylglutamic acid was applied to Arabidopsis thaliana 7 days after inoculation to the final concentration of 0.1 mM in the medium, followed by incubation for 2 hours or 6 hours. The incubator was maintained at a temperature of 22° C. for a daily cycle of 16 hours light and 8 hours darkness. After incubation, the samples were frozen with liquid nitrogen, and RNA was extracted using the RNeasy Plant Mini Kit (Thermo Fischer Scientific).
cDNA that would be necessary as a real-time PCR template was synthesized from the RNA obtained. 500 ng total RNA was used for each sample, and cDNA was synthesized using the Verso cDNA Synthesis Kit (Thermo Fischer Scientific). The synthesized cDNA was diluted to 5-fold with sterile distilled water and subjected to real-time PCR. For real-time PCR, a reaction solution containing HSFA2 (AGI code: AT2G26150) and HSP17.6C (AGI code: AT1G53540) as the target genes, ACTIN2 (AGI code: AT3G18780) as the reference gene, and TB Green Ex Taq II (TaKaRa) was prepared. PCR was performed with the use of the LightCycler® 480 System (Roche) with the number of amplification cycles of 50. […]
Thereafter, the relative expression level of the target genes upon N-acetylglutamic acid treatment were calculated by the ΔΔCt method using the Cp values obtained by real-time PCR.

A further test has as its system HAC1. Description: HAC1 gene expression by real-time PCR, Example 15. Format: in vivo. Conditions: Arabidopsis thaliana; 0.1 mM in medium, 2 hours after application, 22° C.; read-out: HAC1 expression level, increase vs group not subjected to the treatment. The procedure:
as §3, §4, §5, §6, §2

In a further test the test system is Arabidopsis thaliana. Description: High-temperature stress resistance in pot culture (fresh weight of aboveground part), Example 2. Format: in vivo, Arabidopsis thaliana (Col-0). Conditions: 0.5 mM in tap water, 37° C. for 5 days. The procedure: as §1
Jiffy-7 (42 mm diameter, Sakata Seed Corporation) was used as culture soil for pot culture. On Jiffy-7 prepared on the Disposable Tray DT-3 (AS ONE CORPORATION), a grain of Arabidopsis thaliana seeds was seeded and the plant was allowed to grow in an artificial climate chamber (Nippon Medical & Chemical Instruments Co., Ltd.) maintained at a temperature of 22° C. for a daily cycle of 16 hours light and 8 hours darkness.
On the third week after seeding, tap water (200 ml) containing 0.5 mM N-acetylglutamic acid was poured on the Disposable Tray. On the fourth week after seeding, the tray was transferred to an artificial climate chamber maintained at a temperature of 37° C. and subjected to the high-temperature treatment. When the tray was dried during the high-temperature treatment, tap water containing 0.5 mM N-acetylglutamic acid was added. The tray was removed from the artificial climate chamber 5 days after the initiation of the high-temperature treatment, and the weight of the aboveground part was measured.

The structures appear in SMILES notation.

Regarding `CC(=O)N[C@@H](CCC(=O)O)C(=O)O` [N-acetylglutamic acid], the fold induction at 400 µM in the test with ZAT10 was found to be 28. The fold induction at 100 µM in the test with HAC12 came to 1.3; with HSP17.6C, 1.2; with HAC1, 1.2. For the same molecule, the “fresh weight of the aboveground part, increase relative to the control group” value with Arabidopsis thaliana stood at 1.3 times.

The record behind these values is patent publication US20260324636A1, “COMPOSITION FOR PROVIDING PLANT WITH STRESS RESISTANCE” (KIRIN HOLDINGS KABUSHIKI KAISHA, priority 2022, published 2026).
